Measured values taken from patent publication US20230128137A1, “BENZO FIVE-MEMBERED CYCLIC COMPOUND” (MEDSHINE DISCOVERY INC., priority 2020, published 2023).
Several values for one entry are separate records, joined by “and”; a condition that tells them apart may be missing. Equal entries are not always repeated.

Columns and labels:
Bcl-xL = biological target: T1, Bcl-xL (Homo sapiens, UniProt Q07817); assay: HTRF competition test, Bcl-xL with FAM-Bad peptide (enzymology experiment); assay type: binding; conditions: 3 nM Bcl-xL and 40 nM FAM-Bad, read-out: IC50 (nM) for inhibition of Bcl-xL enzyme
T1 construct: Human recombinant Bcl-xL (amino acid 1-209); purchased Reaction Biology Corporation (RBC) APT-11-442; host or cells: E. coli
T1 sequence (Q07817 1-209): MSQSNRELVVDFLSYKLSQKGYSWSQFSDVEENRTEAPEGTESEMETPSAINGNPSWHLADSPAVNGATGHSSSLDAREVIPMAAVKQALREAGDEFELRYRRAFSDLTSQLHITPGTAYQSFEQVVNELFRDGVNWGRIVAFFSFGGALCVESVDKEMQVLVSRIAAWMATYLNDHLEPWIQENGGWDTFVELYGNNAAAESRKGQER
Procedure: (§1) This experiment was based on the competition between fluorescently-labeled Bak/Bad/Noxa peptides and GST-labeled Bcl family proteins. The fluorescence detection method based on HTRF was to observe the binding degree by using the fluorescence ratio between Tb-labeled anti-GST and FAM-labeled peptides. This peptide binds to the surface of the Bcl family protein pocket, which is essential for its anti-apoptotic function.
(§2) 1.1 Experimental reagents: analysis buffer: 20 mM potassium phosphate, pH 7.5, 50 mM sodium chloride, 1 mM EDTA, 0.005% Tritonx-100 and 1% DMSO.
(§3) 1.2 Probe: 5,6-FAM-peptide
(§4) 1.4 Experimental Conditions:
3 nM Bcl-xL and 40 nM FAM-Bad
(§5) a) The Bcl enzyme reaction solution was prepared in the newly prepared analysis buffer;
(§6) b) the Bcl enzyme reaction solution was provided;
(§7) c) the compound was first prepared into a 100% dimethyl sulfoxide solution, and then the compound solution was mixed with the Bcl enzyme reaction solution using (Echo550; nanoliter range) technology, and co-incubated for 10 minutes;
(§8) d) the FAM peptide solution was added.
(§9) e) the mixed solution was gently stirred in dark and room temperature, and co-cultured for 10 minutes.
(§10) f) Anti-GST solution was added.
(§11) g) The mixed solution was gently stirred in dark and room temperature, and co-cultured for 1 hour.
(§12) h) The HTRF high-frequency fluorescence ratio was tested, and the IC50 values were calculated.

[1] = system: human acute lymphoblastic leukemia cell RS4;11 graft tumor; assay: In vivo anti-tumor effect, RS4;11 graft tumor model in BALB/c nude mice; design: species or system BALB/c nude mouse; conditions: for T/C (relative tumor proliferation rate) / TGI (tumor growth inhibition rate): based on tumor volume on day 32
Procedure: 5.1 Experimental animals: Balb/c nude mice, 32 mice, 7 to 8 weeks old, female;
5.2 tumor cells: human acute lymphoblastic leukemia cell line RS4;11, cultured in a suspension in vitro, and the culture conditions were RPMI-1640 culture medium containing 10% fetal bovine serum, cultured in a 5% CO2 incubator at 37° C. When the cells were in exponential growth period and the saturation was 80% to 90%, the cells were collected and counted;
5.3 cell seeding and grouping: the cells were resuspended in […], and the basement membrane matrigel was added in 1:1, and the mixture was mixed well, and the density was 5×10^7 cells/mL. 0.2 mL of cell suspension (containing 1×10^7 RS4;11 cells) was subcutaneously inoculated on the right back of each mouse, and when the average tumor volume reached about 120 mm^3, the drug was administered randomly according to the tumor volume;
5.4 preparation of the subject: an appropriate amount of compound 2 was weighed respectively, and the solvent formula was 2.5% dimethyl sulfoxide, 5% ethanol, 10% cremophor EL, 20% glucose solution (concentration of 5%), 62.5% water;
5.5 tumor-bearing mice divided into four groups (8 mice in each group) were given blank solvent, compound 2 (12.5 mpk, QD), compound 2 (25 mpk, QD) and compound 2 (50 mpk, QD), respectively;
5.6 tumor measurement and experimental indicators:
tumor diameters were measured with vernier calipers two times a week. The calculation formula of tumor volume is: V=0.5×a×b^2, a represents the long diameter of the tumor, and b represents the short diameter of the tumor. The tumor inhibition efficacy of the compounds was evaluated by TGI (%) or relative tumor proliferation rate T/C (%).
Relative tumor proliferation rate T/C %=TRTV/CRTV×100% (TRTV: RTV in the treatment group; CRTV: RTV in the negative control group). The relative tumor volume (RTV) is calculated according to the results of tumor measurement, and the formula is RTV=Vt/V0, where V0 is the tumor volume measured at the time of group administration (i.e., D0), and Vt is the tumor volume measured at a certain measurement, TRTV and CRTV were taken on the same day.
TGI (%), reflecting the tumor growth inhibition rate. The formula for calculating the tumor inhibition efficacy TGI is: […]

Bcl-2 = biological target: T2, Bcl-2 (Homo sapiens, UniProt P10415); assay: HTRF competition test, Bcl-2 with FAM-BAK peptide (enzymology experiment); assay type: binding; conditions: 4 nM Bcl-2 and 100 nM FAM-BAK, read-out: IC50 (nM) for inhibition of Bcl-2 enzyme
T2 construct: Human recombinant Bcl-2 (amino acid 1-207); purchased Reaction Biology Corporation (RBC) APT-11-441; host or cells: E. coli
T2 sequence (P10415 1-207): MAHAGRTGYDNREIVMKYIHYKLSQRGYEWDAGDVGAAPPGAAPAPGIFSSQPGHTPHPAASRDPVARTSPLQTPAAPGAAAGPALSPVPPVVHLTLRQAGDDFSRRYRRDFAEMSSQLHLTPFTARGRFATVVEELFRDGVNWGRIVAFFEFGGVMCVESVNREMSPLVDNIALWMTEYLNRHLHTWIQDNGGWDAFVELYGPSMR
Procedure: as §1, §2, §3, §4
4 nM Bcl-2 and 100 nM FAM-BAK
as §5, §6, §7, §8, §9, §10, §11, §12

CC1(C)CCC(CN2CCN(c3ccc(C(=O)NS(=O)(=O)c4cc([N+](=O)[O-])c(NCC5CCOCC5)c5[nH]cnc45)c(Oc4cnc5[nH]ccc5c4)c3)CC2)=C(c2ccc(Cl)cc2)C1 [Compound 2]
IC50 (Bcl-xL): 411 nM
animal state during the experiment ([1]; 12.5, 25, 50 mpk, QD): normal
T/C (relative tumor proliferation rate) ([1]; 12.5 mpk, QD): 22.37%
TGI (tumor growth inhibition rate) ([1]; 12.5 mpk, QD): 82.12%
Tumor volume ([1]; 12.5 mpk, QD, day 1 after administration, mean ± SEM, n = 8): 114.44 ± 4.91 mm^3 and 114.44 mm^3
Tumor volume ([1]; 12.5 mpk, QD, day 4 after administration): 124.75 ± 10.85 mm^3
Tumor volume ([1]; 12.5 mpk, QD, day 6 after administration): 120.60 ± 12.60 mm^3
Tumor volume ([1]; 12.5 mpk, QD, day 8 after administration): 124.22 ± 15.25 mm^3
Tumor volume ([1]; 12.5 mpk, QD, day 11 after administration): 126.73 ± 11.57 mm^3
Tumor volume ([1]; 12.5 mpk, QD, day 14 after administration): 145.41 ± 17.58 mm^3
Tumor volume ([1]; 12.5 mpk, QD, day 18 after administration): 198.17 ± 38.18 mm^3
Tumor volume ([1]; 12.5 mpk, QD, day 21 after administration): 209.63 ± 39.56 mm^3
Tumor volume ([1]; 12.5 mpk, QD, day 25 after administration): 254.52 ± 52.29 mm^3
Tumor volume ([1]; 12.5 mpk, QD, day 28 after administration): 306.93 ± 66.01 mm^3
Tumor volume ([1]; 12.5 mpk, QD, day 32 after administration, mean ± SEM, n = 8): 365.13 ± 85.31 mm^3 and 365.13 mm^3
T/C (relative tumor proliferation rate) ([1]; 25 mpk, QD): 16.54%
TGI (tumor growth inhibition rate) ([1]; 25 mpk, QD): 89.15%
Tumor volume ([1]; 25 mpk, QD, day 1 after administration, mean ± SEM, n = 8): 114.50 ± 4.98 mm^3 and 114.50 mm^3
Tumor volume ([1]; 25 mpk, QD, day 4 after administration): 99.54 ± 6.66 mm^3
Tumor volume ([1]; 25 mpk, QD, day 6 after administration): 106.03 ± 13.15 mm^3
Tumor volume ([1]; 25 mpk, QD, day 8 after administration): 107.66 ± 15.62 mm^3
Tumor volume ([1]; 25 mpk, QD, day 11 after administration): 101.57 ± 15.87 mm^3
Tumor volume ([1]; 25 mpk, QD, day 14 after administration): 116.52 ± 28.85 mm^3
Tumor volume ([1]; 25 mpk, QD, day 18 after administration): 146.77 ± 44.03 mm^3
Tumor volume ([1]; 25 mpk, QD, day 21 after administration): 191.06 ± 69.68 mm^3
Tumor volume ([1]; 25 mpk, QD, day 25 after administration): 174.50 ± 58.56 mm^3
Tumor volume ([1]; 25 mpk, QD, day 28 after administration): 206.82 ± 76.64 mm^3
Tumor volume ([1]; 25 mpk, QD, day 32 after administration, mean ± SEM, n = 8): 266.63 ± 95.51 mm^3 and 266.63 mm^3
T/C (relative tumor proliferation rate) ([1]; 50 mpk, QD): 7.30%
TGI (tumor growth inhibition rate) ([1]; 50 mpk, QD): 100.27%
Tumor volume ([1]; 50 mpk, QD, day 1 after administration, mean ± SEM, n = 8): 114.18 ± 4.30 mm^3 and 114.18 mm^3
Tumor volume ([1]; 50 mpk, QD, day 4 after administration): 95.13 ± 7.43 mm^3
Tumor volume ([1]; 50 mpk, QD, day 6 after administration): 91.16 ± 6.08 mm^3
Tumor volume ([1]; 50 mpk, QD, day 8 after administration): 86.91 ± 4.92 mm^3
Tumor volume ([1]; 50 mpk, QD, day 11 after administration): 67.64 ± 3.93 mm^3
Tumor volume ([1]; 50 mpk, QD, day 14 after administration): 74.27 ± 6.37 mm^3
Tumor volume ([1]; 50 mpk, QD, day 18 after administration): 58.39 ± 6.94 mm^3
Tumor volume ([1]; 50 mpk, QD, day 21 after administration): 70.21 ± 8.91 mm^3
Tumor volume ([1]; 50 mpk, QD, day 25 after administration): 75.62 ± 10.30 mm^3
Tumor volume ([1]; 50 mpk, QD, day 28 after administration): 78.03 ± 9.52 mm^3
Tumor volume ([1]; 50 mpk, QD, day 32 after administration, mean ± SEM, n = 8): 110.37 ± 19.73 mm^3 and 110.37 mm^3
tumor inhibition effect (in words) ([1]; three dose groups (12.5, 25, 50 mpk, QD), obvious dose-dependence): significant tumor inhibition effect
IC50 (Bcl-2): 1.5 nM
